Results from PubChem BioAssay AID248 (DTP/NCI, 2004).
Several values for one entry are separate records, joined by “and”; a condition that tells them apart may be missing. Equal values may be shown once. Toxic doses and inconclusive results are not listed. No stated cut-off is given here; in the data, active means T/C of 150% or more; inactive means T/C below 125%.

Tested on: L1210 leukemia ip in BDF1 mice, survival T/C
Assay: NCI In Vivo Anticancer Drug Screen. Data for tumor model L1210 Leukemia (intraperitoneal) in B6D2F1 (BDF1) mice
Details: endpoint: mean survival time, higher = longer survival
How it was run: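 Tumor cells were implanted, animals were treated, and survival was followed. The result divides the treated measurement by the vehicle-control measurement.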

[1] = dose: 25.0 mg/kg/injection, schedule: Q04DX003 (ip), vehicle: Klucel (hydroxypropylcellulose) (HPC)
[2] = dose: 50.0 mg/kg/injection, schedule: Q04DX003 (ip), vehicle: Klucel (hydroxypropylcellulose) (HPC)
[3] = dose: 100.0 mg/kg/injection, schedule: Q04DX003 (ip), vehicle: Klucel (hydroxypropylcellulose) (HPC)
[4] = dose: 100.0 mg/kg/injection, schedule: Q04DX003 (ip), vehicle: saline with Tween-80
[5] = dose: 200.0 mg/kg/injection, schedule: Q04DX003 (ip), vehicle: saline with Tween-80
[6] = dose: 400.0 mg/kg/injection, schedule: Q04DX003 (ip), vehicle: saline with Tween-80
[7] = dose: 100.0 mg/kg/injection, schedule: Q04DX003 (ip), vehicle: saline
[8] = dose: 200.0 mg/kg/injection, schedule: Q04DX003 (ip), vehicle: saline
[9] = dose: 400.0 mg/kg/injection, schedule: Q04DX003 (ip), vehicle: saline
[10] = dose: 12.5 mg/kg/injection, schedule: Q01DX009 (ip), vehicle: Klucel (hydroxypropylcellulose) (HPC)
[11] = dose: 25.0 mg/kg/injection, schedule: Q01DX009 (ip), vehicle: Klucel (hydroxypropylcellulose) (HPC)
[12] = dose: 50.0 mg/kg/injection, schedule: Q01DX009 (ip), vehicle: Klucel (hydroxypropylcellulose) (HPC)
[13] = dose: 100.0 mg/kg/injection, schedule: Q01DX009 (ip), vehicle: saline with Tween-80
[14] = dose: 200.0 mg/kg/injection, schedule: Q01DX009 (ip), vehicle: saline with Tween-80
[15] = dose: 400.0 mg/kg/injection, schedule: Q01DX009 (ip), vehicle: saline with Tween-80
[16] = dose: 100.0 mg/kg/injection, schedule: Q04DX002 (ip), vehicle: saline
[17] = dose: 200.0 mg/kg/injection, schedule: Q04DX002 (ip), vehicle: saline

Measured: T/C

Nc1nc(O)c(N2C(=O)c3ccccc3C2=O)c(=O)[nH]1
inactive: [1] 93 % of control | [2] 96 % of control | [3] 96 % of control

CCN(C(=O)c1cc(OC)c(OC)c(OC)c1)C1CCCCC1
inactive: [4] 101 % of control | [5] 107 % of control | [6] 96 % of control

CCN(CC)C1CCC(NC(C)=O)CC1 (centres undefined)
inactive: dose: 100.0 mg/kg/injection, schedule: Q01DX009 (ip), vehicle: saline 108 % of control | [7] 105 % of control and 97 % of control | dose: 200.0 mg/kg/injection, schedule: Q01DX009 (ip), vehicle: saline 107 % of control | [8] 96 % of control and 99 % of control | dose: 400.0 mg/kg/injection, schedule: Q01DX009 (ip), vehicle: saline 86 % of control | [9] 101 % of control

COc1cc(N)ccc1/C=C/C(=O)O
inactive: [7] 97 % of control | [8] 98 % of control | [9] 92 % of control

CC(=O)c1ccc2ccc3cccc4ccc1c2c34
inactive: dose: 100.0 mg/kg/injection, schedule: Q04DX002 (ip), vehicle: gum acacia 96 % of control | dose: 200.0 mg/kg/injection, schedule: Q04DX002 (ip), vehicle: gum acacia 96 % of control | dose: 400.0 mg/kg/injection, schedule: Q04DX002 (ip), vehicle: gum acacia 93 % of control

O=C1CC2CC1C1C(=O)OC(=O)C21 (centres undefined)
inactive: dose: 75.0 mg/kg/injection, schedule: Q01DX001 (ip), vehicle: acetone 91 % of control | dose: 150.0 mg/kg/injection, schedule: Q01DX001 (ip), vehicle: acetone 104 % of control | dose: 300.0 mg/kg/injection, schedule: Q01DX001 (ip), vehicle: acetone 98 % of control

[C-]#[N+]CCc1ccccc1
inactive: dose: 100.0 mg/kg/injection, schedule: Q01DX001 (ip), vehicle: saline with Tween-80 98 % of control | dose: 200.0 mg/kg/injection, schedule: Q01DX001 (ip), vehicle: saline with Tween-80 96 % of control

C[C@H]1C[C@H]2[C@@H]3CC[C@](O)(C(=O)CF)[C@@]3(C)C[C@H](O)[C@]2(F)[C@@]2(C)C=CC(=O)C=C12
inactive: dose: 50.0 mg/kg/injection, schedule: Q01DX001 (ip), vehicle: carboxymethylcellulose (CMC) 105 % of control | dose: 100.0 mg/kg/injection, schedule: Q01DX001 (ip), vehicle: carboxymethylcellulose (CMC) 113 % of control | dose: 200.0 mg/kg/injection, schedule: Q01DX001 (ip), vehicle: carboxymethylcellulose (CMC) 113 % of control | dose: 400.0 mg/kg/injection, schedule: Q01DX001 (ip), vehicle: carboxymethylcellulose (CMC) 113 % of control

CCSC1=C(N2CC2)C(=O)C(SCC)=C(N2CC2)C1=O
inactive: dose: 150.0 mg/kg/injection, schedule: Q04DX003 (ip), vehicle: saline 96 % of control | dose: 225.0 mg/kg/injection, schedule: Q04DX003 (ip), vehicle: saline 96 % of control

CC(C)=CCC/C(C)=C/CC(N)Cc1ccccc1 (centres undefined)
inactive: [10] 94 % of control | [11] 97 % of control | [12] 92 % of control

CN(C)C(=O)C1C2CCC(C2)C1C(=O)N(C)C (centres undefined)
inactive: [7] 103 % of control | [8] 96 % of control | [9] 100 % of control

CCOC(=O)C(CCc1ccncc1)c1ccccc1 (centres undefined)
inactive: dose: 111.0 mg/kg/injection, schedule: Q01DX Z (ip), vehicle: methylcellulose (MC) 94 % of control | dose: 166.0 mg/kg/injection, schedule: Q01DX Z (ip), vehicle: methylcellulose (MC) 102 % of control | dose: 250.0 mg/kg/injection, schedule: Q01DX Z (ip), vehicle: methylcellulose (MC) 96 % of control

CC(=O)NCC(=O)c1ccc(Cl)cc1
inactive: [13] 103 % of control | [4] 102 % of control | [14] 104 % of control | [5] 102 % of control | [15] 121 % of control | [6] 96 % of control

CCCCCCCCCCCCCC(=O)[O][Sn]([CH2]CCC)([CH2]CCC)[O]C(=O)CCCCCCCCCCCCC
inactive: dose: 0.78 mg/kg/injection, schedule: Q04DX003 (ip), vehicle: other 95 % of control | dose: 1.56 mg/kg/injection, schedule: Q04DX003 (ip), vehicle: other 98 % of control | dose: 3.13 mg/kg/injection, schedule: Q04DX003 (ip), vehicle: other 96 % of control | dose: 6.25 mg/kg/injection, schedule: Q04DX003 (ip), vehicle: other 109 % of control | dose: 12.5 mg/kg/injection, schedule: Q04DX003 (ip), vehicle: other 101 % of control

CCN(CC)CC(=O)CC12CC3CC(CC(C3)C1)C2
inactive: dose: 0.8 mg/kg/injection, schedule: Q04DX002 (ip), vehicle: saline 93 % of control | dose: 1.6 mg/kg/injection, schedule: Q04DX002 (ip), vehicle: saline 97 % of control | dose: 3.1 mg/kg/injection, schedule: Q04DX002 (ip), vehicle: saline 101 % of control | dose: 6.25 mg/kg/injection, schedule: Q04DX002 (ip), vehicle: saline 97 % of control

N#CC(C#N)N=O (tested in a mixture with another compound)
inactive: dose: 25.0 mg/kg/injection, schedule: Q04DX002 (ip), vehicle: saline 89 % of control | dose: 50.0 mg/kg/injection, schedule: Q04DX002 (ip), vehicle: saline 101 % of control | [16] 95 % of control and 97 % of control | [17] 105 % of control

CC(=O)OC1CC2c3ccccc3C1c1cccc[n+]12 (centres undefined)
inactive: dose: 12.5 mg/kg/injection, schedule: Q01DX001 (ip), vehicle: Klucel (hydroxypropylcellulose) (HPC) 97 % of control | [10] 100 % of control | dose: 25.0 mg/kg/injection, schedule: Q01DX001 (ip), vehicle: Klucel (hydroxypropylcellulose) (HPC) 101 % of control | [11] 102 % of control | [1] 101 % of control | dose: 50.0 mg/kg/injection, schedule: Q01DX001 (ip), vehicle: Klucel (hydroxypropylcellulose) (HPC) 105 % of control | [12] 104 % of control | [2] 94 % of control | dose: 75.0 mg/kg/injection, schedule: Q01DX009 (ip), vehicle: Klucel (hydroxypropylcellulose) (HPC) 88 % of control | dose: 100.0 mg/kg/injection, schedule: Q01DX001 (ip), vehicle: Klucel (hydroxypropylcellulose) (HPC) 101 % of control

C=C(C(N)=O)c1cc(Cl)ccc1Cl
inactive: [13] 96 % of control | [4] 103 % of control | [14] 92 % of control | [5] 101 % of control | [15] 92 % of control | [6] 94 % of control

CC(=O)Nc1ccc(S(=O)(=O)C(Cl)c2ccccc2)cc1 (centres undefined)
inactive: dose: 100.0 mg/kg/injection, schedule: Q01DX001 (ip), vehicle: saline 103 % of control | dose: 200.0 mg/kg/injection, schedule: Q01DX001 (ip), vehicle: saline 103 % of control | dose: 400.0 mg/kg/injection, schedule: Q01DX001 (ip), vehicle: saline 98 % of control

Nc1ncnc2c1ncn2CCCCCCl
inactive: dose: 12.5 mg/kg/injection, schedule: Q04DX003 (ip), vehicle: saline 90 % of control | dose: 25.0 mg/kg/injection, schedule: Q04DX003 (ip), vehicle: saline 88 % of control | dose: 50.0 mg/kg/injection, schedule: Q04DX003 (ip), vehicle: saline 100 % of control

Oc1ccc(O)c2[nH]c(-c3ccccc3)cc12
inactive: dose: 6.25 mg/kg/injection, schedule: Q04DX002 (ip), vehicle: saline with Tween-80 97 % of control | dose: 12.5 mg/kg/injection, schedule: Q04DX002 (ip), vehicle: saline with Tween-80 97 % of control

COc1ccc(CCOC(C)=O)cc1
inactive: [16] 97 % of control | [17] 102 % of control | dose: 400.0 mg/kg/injection, schedule: Q04DX002 (ip), vehicle: saline 102 % of control

CC(C)C1=CC2=CCC3C(C)(C(N)=O)CCCC3(C)C2CC1CC#N (centres undefined)
inactive: [13] 93 % of control | [14] 93 % of control | [5] 91 % of control | [15] 94 % of control | [6] 93 % of control

CCCCCC#CCO
inactive: [4] 108 % of control | [5] 101 % of control

CCCCCCCc1ccc2cccc3c2c1C(=O)c1ccccc1-3
inactive: [3] 92 % of control | dose: 200.0 mg/kg/injection, schedule: Q04DX003 (ip), vehicle: Klucel (hydroxypropylcellulose) (HPC) 92 % of control | dose: 400.0 mg/kg/injection, schedule: Q04DX003 (ip), vehicle: Klucel (hydroxypropylcellulose) (HPC) 94 % of control
